Laboratory results as given in patent publication US12226385B2, “Synergistic composition for activating intracellular secondary messenger(cAMP) pathway” (CELAGENEX RESEARCH (INDIA) PRIVATE LTD., priority 2021, dated 2025).
Where two headings read alike, the source gives them in different places.

Assays:
[1] = tested on: cAMP; assay: Modulatory effect on cAMP levels in C6 cells (ELISA kit); assay type: cell-based; settings: C6 (Rat Glioblastoma) cells, 28 hours of incubation, doses per Table 1
Description: To assess the effectiveness of test substance on modulation of cAMP and evaluation of BDNF in Rat Glioblastoma cells.
The cytotoxicity profiling of the test substance was carried out to find the safe dose on C6 cells. […] The levels of cAMP in the cell lysate were measured using a suitable ELISA kit to infer the modulatory effect.
10 mg of test substance was separately dissolved in 100 μL of DMSO and volume was made up with Ham's F-12 medium supplemented with 2% inactivated FBS to obtain a stock solution of 10 mg/mL concentration and sterilized by 0.22μ syringe filtration. Serial two-fold dilutions were prepared from this stock solution for further studies.
C6 (Rat Glioblastoma) cell line was procured from NCCS, India. Stock cells was cultured in Ham's F-12 medium supplemented with 10% inactivated Fetal Bovine Serum (FBS), penicillin (100 IU/ml), streptomycin (100 μg/ml) and amphotericin B (5 μg/ml) in a humidified atmosphere of 5% CO2 at 37° C. until confluent. Passaging was done by centrifuging the cells, followed by seeding the pellet into a tissue culture vessel. The stock cultures were grown in 25 cm2 culture flasks and all experiments will be carried out in 96 microtitre plates (Tarsons India Pvt. Ltd., Kolkata, India).
To perform the assay, cells were seeded in 24-well plates containing […] complete Ham's F-12 with 4.5 g/L glucose. […] Then, the selected dose of test substances and positive control (Clozapine) was added to the cells. After 28 hours of incubation, the cell supernatants from respective treatment wells were collected and assayed to estimate the levels of cyclic AMP using a commercially available kit.

[2] = tested on: BDNF; assay: Estimation of BDNF levels in C6 cells (Rat BDNF ELISA kit); assay type: cell-based; settings: C6 (Rat Glioblastoma) cells, 28 hours of incubation, doses per Table 1
Description: To perform the assay, cells were seeded in 24-well plates containing 500 μL complete Ham's F-12 with 4.5 g/L glucose. After 24 h, the confluent monolayer of cells was firstly incubated with the corresponding inhibitor compound for 1-4 h (based on standardization) minutes in the incubator at 37° C. and 5% CO2. Then, the selected dose of test substances and positive control was added to the cells. After 28 hours of incubation, the cell supernatants from respective treatment wells were collected and assayed to estimate the levels of BDNF using a commercially available Rat BDNF ELISA kit.

[3] = tested on: ALCAR; assay: Estimation of ALCAR plasma level (ALCAR ELISA kit); assay type: cell-based, Rat; settings: doses per Table 1
Description: f. Estimation of ALCAR Plasma Level (Nmol/Ml): Assay Performed by ALCAR ELISA Kit
(§1) The estimation of modulatory effect of test substance on biochemical parameters were analysed in C6 (Rat Glioblastoma) cell. […] This indicated the increase in synapse number and neuroplasticity.

[4] = tested on: CREB (Cyclic AMP Response Element-Binding Protein); assay: Estimation of CREB (Cyclic AMP Response Element-Binding Protein); assay type: cell-based, Rat; settings: doses per Table 1
Description: g. Estimation of CREB (Cyclic AMP Response Element-Binding Protein) nM Results:
as §1

[5] = tested on: experimental rat; assay: Force Swim Test in rats; assay type: in vivo; settings: male Wister rats, n=6, end of treatment, doses per Table 3
Description: (§2) Evaluation of physical parameters of the test substances in experimental rat.
(§3) • Species: Rat • Strain: Wister • Sex: Male • No. of animals: 48 Animals (n=6 per group) • Body weight: 180-200 gm Group, Designation and Dose Levels:
(§4) The tests were performed by the known technique.
(§5) The following behavioural test were conducted at the end of the treatment, • Force Swim Test • Open Field Test • Behavioural at Novel Object Test • Behaviour at Elevated Plus Maze (EPM) test

[6] = tested on: experimental rat; assay: Open Field Test in rats; assay type: in vivo
Description: as §2, §3, §4, §5

[7] = tested on: experimental rat; assay: Novel Object Test in rats; assay type: in vivo
Description: as §2, §3, §4, §5
Table 5 represent behavioural at novel object test where latency time spent towards the novel objects indicated better memory and learning ability. This test is based on the spontaneous tendency of rats to spend more time exploring a novel object than a familiar one.

[8] = tested on: experimental rat; assay: Elevated Plus Maze (EPM) test in rats; assay type: in vivo
Description: as §2, §3, §4, §5

[9] = tested on: Adult Patients with Major Depressive Disorder; assay: Double-blind, fixed-dose clinical study, Hamilton Rating Scale for Depression (HAM-D); assay type: in vivo, human
Description: Composition-1—(3R)-3-acetyloxy-4-(trimethylazaniumyl)butanoate+N-4-Aminobutylguanidine—500 mg+250 mg
(§6) A double-blind, Fixed-dose study, 80 participants (males and females) with major depression were randomly assigned to receive test samples. Age eligibility for study include 18 Years to 65 Years (Adult, Older Adult)
Participants were evaluated at visits at screening, baseline/randomization, and 4, 8, and 12 weeks after randomization. Masking—Triple (Participant, Investigator, Outcomes Assessor); Parallel Assignment
Pre-assignment Details: A one-week single-blind placebo period was completed prior to randomization.
Change From Baseline in Hamilton Rating Scale for Depression (HAM-D) at Week 4, 8 and 12 [Time Frame: Change from baseline in HAM-D at week 4, 8 and 12]
The HAMD is a clinician-rated 21-item scale was used to rate the patient's depressive state. It was also used to identify obsessive-compulsive, genital, and somatic symptoms, as well as diurnal variation in the presence of symptoms. Each item was scored on a 1, 2, 3, 4 or 5-point Likert scale. A score of 0 indicated the absence of symptoms, and a score of 2, 3 or 4 indicated symptoms of maximum severity. The total score range is 0 to 62 (higher score indicates a greater depressive state).

[10] = tested on: Adult Patients with Major Depressive Disorder; assay: Clinical study, serum Acetyl-L carnitine (ALCAR) levels; assay type: in vivo, human
Source text: as §6
To measure serum Acetyl-L carnitine levels pre-treatment and end of 12 weeks and correlate it with severity of depression and treatment outcomes.

[11] = male Wister rats, n=6, end of treatment, doses per Table 3
[12] = pretreatment, whole arm (Table 8)

In the case of `CN1CCN(C2=Nc3cc(Cl)ccc3Nc3ccccc32)CC1` [Clozapine], the cAMP [1] is reported as 4.1 pmol/µL, the BDNF [2] is reported as 77 ng/L and the “Plasma ALCAR” value [3] is reported as 21 nmol/mL. The CREB [4] was 0.5 nM, the “Force Swim Test Immobility” value [5] was 189 s and the “Open Field Test Distance walked in corners” value [6, 11] was 2200 cm. The “Open Field Test Latency to reach center” value [6, 11] was 38 s, the “Latency to reach Novel Object” value [7, 11] was 03 s and the “Number of times sniffing the object” value [7, 11] was 62 times. The “Time Spent sniffing the object” value [7, 11] was 13%, the “Number of entries in to open arm” value [8, 11] was 10 times and the “Number of times head dipping” value [8, 11] was 18 times. The “Number of times rearing” value [8, 11] was 25 times, the “Time Spent Rearing” value [8, 11] was 19% and the “Time in the open arms” value [8, 11] was 15%. The “time spent head dipping” value [8, 11] was 21%.

In the case of `CN(C)CCC[C@@]1(c2ccc(F)cc2)OCc2cc(C#N)ccc21` [Escitalopram], the cAMP [1] is reported as 6.0 pmol/µL, the “Plasma ALCAR” value [3] is reported as 23 nmol/mL and the CREB [4] is reported as 0.8 nM. For the same molecule, the “Force Swim Test Immobility” value [5] was 68 s, the “Open Field Test Distance walked in corners” value [6, 11] was 1900 cm and the “Open Field Test Latency to reach center” value [6, 11] was 26 s. The “Latency to reach Novel Object” value [7, 11] was 32 s, the “Number of times sniffing the object” value [7, 11] was 48 times and the “Time Spent sniffing the object” value [7, 11] was 09%. For the same molecule, the “Number of entries in to open arm” value [8, 11] was 07 times, the “Number of times head dipping” value [8, 11] was 12 times and the “Number of times rearing” value [8, 11] was 18 times. For the same molecule, the “Time Spent Rearing” value [8, 11] was 16%, the “Time in the open arms” value [8, 11] was 11% and the “time spent head dipping” value [8, 11] was 12%. For the same molecule, the “Mean HAM-D Score” value ([9]; Baseline) was 26.2, the “Mean HAM-D Score” value ([9]; Week-4) was 25.72 and the “Non-Responder Rate” value ([9]; Week-4) was “(100%)”. The “Non-Responder Rate, patients/total” value ([9]; Week-4) was 40/40, the “Remission Rate (HAM-D Score <7)” value ([9]; Week-4) was “(0%)” and the “Remission Rate (HAM-D Score <7), patients/total” value ([9]; Week-4) was 0/40. For the same molecule, the “Responder Rate (50% Reduction from baseline)” value ([9]; Week-4) was “(0%)”, the “Responder Rate (50% Reduction from baseline), patients/total” value ([9]; Week-4) was 0/40 and the “Mean HAM-D Score” value ([9]; Week-8) was 21.45. The “Non-Responder Rate” value ([9]; Week-8) was “(97.5%)”, the “Non-Responder Rate, patients/total” value ([9]; Week-8) was 39/40 and the “Remission Rate (HAM-D Score <7)” value ([9]; Week-8) was “(0%)”. For the same molecule, the “Remission Rate (HAM-D Score <7), patients/total” value ([9]; Week-8) was 0/40, the “Responder Rate (50% Reduction from baseline)” value ([9]; Week-8) was “(2.5%)” and the “Responder Rate (50% Reduction from baseline), patients/total” value ([9]; Week-8) was 1/40. The “Mean HAM-D Score” value ([9]; Week-12) was 13.75, the “Non-Responder Rate” value ([9]; Week-12) was “(52.5%)” and the “Non-Responder Rate, patients/total” value ([9]; Week-12) was 21/40. For the same molecule, the “Remission Rate (HAM-D Score <7)” value ([9]; Week-12) was “(17.5%)”, the “Remission Rate (HAM-D Score <7), patients/total” value ([9]; Week-12) was 7/40 and the “Responder Rate (50% Reduction from baseline)” value ([9]; Week-12) was “(30%)”. For the same molecule, the “Responder Rate (50% Reduction from baseline), patients/total” value ([9]; Week-12) was 12/40, the “Non-Responder Remission Rate in Female Subgroup” value ([9]; Week-12, female subgroup) was “(75%)” and the “Non-Responder Remission Rate in Female Subgroup, patients/total” value ([9]; Week-12, female subgroup) was 21/28. For the same molecule, the “Responder Remission Rate in Female Subgroup” value ([9]; Week-12, female subgroup) was “(25%)”, the “Responder Remission Rate in Female Subgroup, patients/total” value ([9]; Week-12, female subgroup) was 7/28 and the “Mean HAM-D Score at pretreatment” value [9, 12] was 26.2. For the same molecule, the “Mean Serum ALCAR, Non-Responder group” value ([10]; Baseline) was 0.94 µg/mL, the “Mean Serum ALCAR, Remission group” value ([10]; Baseline) was 1.20 µg/mL and the “Mean Serum ALCAR, Responder group” value ([10]; Baseline) was 0.91 µg/mL. The “Mean Serum ALCAR, Non-Responder group” value ([10]; Week-12) was 0.99 µg/mL, the “Mean Serum ALCAR, Remission group” value ([10]; Week-12) was 3.53 µg/mL and the “Mean Serum ALCAR, Responder group” value ([10]; Week-12) was 2.19 µg/mL. The “Mean serum ALCAR at pretreatment” value [10, 12] was 1.01 microgram/ml.

For `CC(=O)O[C@H](CC(=O)[O-])C[N+](C)(C)C` [Group 4, (3R)-3-acetyloxy-4-(trimethylazaniumyl)butanoate], the cAMP [1] was 4.8 pmol/µL, the BDNF [2] was 88 ng/L and the “Plasma ALCAR” value [3] was 25 nmol/mL. The CREB [4] was 1.0 nM, the “Force Swim Test Immobility” value [5] was 55 s and the “Open Field Test Distance walked in corners” value [6, 11] was 1860 cm. For the same molecule, the “Open Field Test Latency to reach center” value [6, 11] was 27 s, the “Latency to reach Novel Object” value [7, 11] was 35 s and the “Number of times sniffing the object” value [7, 11] was 49 times. The “Time Spent sniffing the object” value [7, 11] was 08%, the “Number of entries in to open arm” value [8, 11] was 08 times and the “Number of times head dipping” value [8, 11] was 12 times. The “Number of times rearing” value [8, 11] was 18 times, the “Time Spent Rearing” value [8, 11] was 15% and the “Time in the open arms” value [8, 11] was 12%. For the same molecule, the “time spent head dipping” value [8, 11] was 11%.

For `N=C(N)NCCCCN` [Group 5, N-4-aminobutylguanidine], the cAMP [1] was 5.1 pmol/µL, the BDNF [2] was 91 ng/L and the “Plasma ALCAR” value [3] was 22 nmol/mL. For the same molecule, the CREB [4] was 1.2 nM, the “Force Swim Test Immobility” value [5] was 59 s and the “Open Field Test Distance walked in corners” value [6] was 1820 cm. For the same molecule, the “Open Field Test Latency to reach center” value [6] was 25 s, the “Time Spent sniffing the object” value [7] was 09% and the “Latency to reach Novel Object” value [7, 11] was 36 s. For the same molecule, the “Number of times sniffing the object” value [7, 11] was 47 times, the “Time Spent Rearing” value [8] was 13% and the “time spent head dipping” value [8] was 10%. The “Number of entries in to open arm” value [8, 11] was 07 times, the “Number of times head dipping” value [8, 11] was 11 times and the “Number of times rearing” value [8, 11] was 16 times. The “Time in the open arms” value [8, 11] was 11%.
